# Results from publication PMC9718554, “Discovery of a fragment hit compound targeting D-Ala:D-Ala ligase of bacterial peptidoglycan biosynthesis” (Journal of Enzyme Inhibition and Medicinal Chemistry, 2022).
# Residues, ends and D or L forms follow the SMILES beside them.
# Target: T1, E. coli DdlB enzyme (D-alanine:D-alanine ligase) (Escherichia coli, UniProt P07862)
# T1 construct: made in house; host or cells: E. coli
# Assay: biochemical
# Conditions: fragment library screening; tested concentration 1.7 mM; read-out: DdlB RA
row,Structure (SMILES),remaining activity at 1700 µM [%]
1,C[C@H](NC(=O)[C@H](C)n1nnc2ccccc2c1=O)C(=O)O [Compound Y040-2749],92
2,CCn1nccc1[C@H](C)NC(=O)[C@H]1CCCC[C@H]1C(=O)O [Compound Y503-1571],93

# Same assay, conditions: fragment library screening; tested concentration 1.8 mM; read-out: DdlB RA
row,Structure (SMILES),remaining activity at 1800 µM [%]
1,O=C(O)C[C@H]1NC(=O)N(CCc2cccc(F)c2)C1=O [Compound Y042-2983],93
2,O=C(O)CCCc1nc2ccccc2c(=O)n1C1CC1 [Compound Y042-5065],92
3,O=C(O)CCCn1cnc2ccc([N+](=O)[O-])cc2c1=O [Compound Y044-6460],63
4,O=C(O)CCCC(=O)N1CCN(c2ccccc2)CC1 [Compound Y204-6418],99
5,O=C(O)[C@@H]1[C@H]2CC[C@H](CC2)[C@@H]1C(=O)NCc1ccco1 [Compound Y206-3693],92

# Same assay, conditions: fragment library screening; tested concentration 1.9 mM; read-out: DdlB RA
row,Structure (SMILES),remaining activity at 1900 µM [%]
1,O=C(O)CCC(=O)N1CCO[C@H](c2ccccc2)C1 [Compound Y044-6579],93
2,O=C(Nc1cccc(F)c1)[C@H]1CCCC[C@H]1C(=O)O [Compound Y203-6612],93
3,O=C(NCc1ccncc1)[C@H]1CC=CC[C@H]1C(=O)O [Compound Y204-2545],75

# Same assay, conditions: fragment library screening; tested concentration 2.0 mM; read-out: DdlB RA
row,Structure (SMILES),remaining activity at 2000 µM [%]
1,O=C(O)c1ccc(N2Cc3ccccc3C2=O)cc1 [Compound Y042-2866],82
2,O=C(O)c1cc(-c2cccnc2)nc2ccccc12 [Compound Y042-7719],85
3,O=C(O)CC1CCN(c2ccc(Cl)nn2)CC1 [Compound Y043-2007],90
4,O=C(Nc1cccnc1)[C@H]1CCCC[C@H]1C(=O)O [Compound Y203-7528],91
5,Cc1ccc2c(c1)CCCN2C(=O)CCC(=O)O [Compound Y206-3286],90
6,Cc1cccc(-c2ccnc3c(C(=O)O)cnn23)c1 [Compound Y502-0116],6

# Same assay, conditions: residual activity; tested concentration 1.7 mM; read-out: DdlB RA
row,Structure (SMILES),remaining activity at 1700 µM [%]
1,O=C(O)c1ccn(COc2ccc(Cl)cc2Cl)n1 [Compound Y503-2333],96

# Same assay, conditions: residual activity; tested concentration 1.8 mM; read-out: DdlB RA
row,Structure (SMILES),remaining activity at 1800 µM [%]
1,COc1cccc(C(=O)Nc2ccccc2C(=O)O)c1 [Compound Y030-1668],97
2,Cc1c(S(=O)(=O)NC2CCCCCC2)cnn1C [Compound Y502-6613],94

# Same assay, conditions: residual activity; tested concentration 1.9 mM; read-out: DdlB RA
row,Structure (SMILES),remaining activity at 1900 µM [%]
1,Cc1cc(NC(=O)C2CC(=O)N(C3CCCCC3)C2)no1 (stereo not drawn) [Compound Y031-2007],83
2,CN1CCN(C(=O)Nc2ccccc2C(=O)O)CC1 [Compound Y043-2499],92
3,CCn1cc(C(=O)Nc2ccccc2C(=O)O)cn1 [Compound Y501-0105],88
4,Cc1nn(C(F)F)cc1S(=O)(=O)N1CCC(C)CC1 [Compound Y501-4822],97

# Same assay, conditions: residual activity; tested concentration 2.0 mM; read-out: DdlB RA
row,Structure (SMILES),remaining activity at 2000 µM [%]
1,O=C(O)c1ccccc1NC(=O)N1CCOCC1 [Compound Y043-2494],96

# Same assay, conditions: residual activity; tested concentration 2.1 mM; read-out: DdlB RA
row,Structure (SMILES),remaining activity at 2100 µM [%]
1,CC(CCc1ccccc1)NC(=O)N1CCOCC1 (stereo not drawn) [Compound Y030-6075],94
2,CCS(=O)(=O)N1CCC(C(=O)N2CCCCC2)CC1 [Compound Y050-2528],97
3,CC1CN(S(=O)(=O)c2ccc(F)c(F)c2)CC(C)O1 (stereo not drawn) [Compound Y202-8173],95
4,Cc1ccc(CS(=O)(=O)N2CCc3ccccc32)cc1 [Compound Y300-3078],112

# Same assay, conditions: residual activity; tested concentration 2.2 mM; read-out: DdlB RA
row,Structure (SMILES),remaining activity at 2200 µM [%]
1,Cc1onc(-c2ccccc2Cl)c1C(=O)NCC#N [Compound Y030-1543],98
2,CCC(C)(C)NC(=O)C1CC(=O)N(c2ccccc2)C1 (stereo not drawn) [Compound Y031-3748],101
3,Cc1c(C)c(C)c(S(=O)(=O)NC(C)C)c(C)c1C [Compound Y206-5269],77
4,Cc1ccccc1CS(=O)(=O)N1CCCC(C)C1 (stereo not drawn) [Compound Y300-2308],95

# Same assay, conditions: residual activity; tested concentration 2.3 mM; read-out: DdlB RA
row,Structure (SMILES),remaining activity at 2300 µM [%]
1,O=S(=O)(c1ccccc1)N1CCN2CCCC2C1 (stereo not drawn) [Compound Y206-5298],92
2,Cc1c(Br)c(C(=O)O)nn1C [Compound Y501-6296],107
3,CCn1cc(Br)c(C(=O)O)n1 [Compound Y501-6363],90

# Same assay, conditions: tested concentration 1.7 mM; read-out: DdlB RA
row,Structure (SMILES),remaining activity at 1700 µM [%]
1,NS(=O)(=O)c1ccc(CNC(=O)N2CCOCC2)cc1 [Compound Y030-3729],104
2,Cc1ccc(S(N)(=O)=O)cc1NC(=O)c1cccnc1 [Compound Y202-7310],100
3,NS(=O)(=O)c1ccc(NC(=O)CCC2CCCC2)cc1 [Compound Y204-2561],87
4,NS(=O)(=O)c1ccc(CNC(=O)c2ccncc2)cc1 [Compound Y205-1594],102
5,O=C(O)c1cc(Br)cc(Br)c1O [Compound Y501-3736],-39

# Same assay, conditions: tested concentration 1.8 mM; read-out: DdlB RA
row,Structure (SMILES),remaining activity at 1800 µM [%]
1,CCCC(C)C(=O)Nc1ccc(S(N)(=O)=O)cc1 (stereo not drawn) [Compound Y030-4922],77
2,NS(=O)(=O)c1ccc(CNC(=O)C2CCCO2)cc1 (stereo not drawn) [Compound Y030-8649],97
3,Cc1ccc(S(N)(=O)=O)cc1C(=O)NCC(C)C [Compound Y050-1744],83
4,CCC(CC)C(=O)Nc1ccc(S(N)(=O)=O)cc1 [Compound Y203-8619],81
5,O=C(O)C1CCCCC1C(=O)NCc1ccc(F)cc1 (stereo not drawn) [Compound Y204-1009],95
6,NS(=O)(=O)c1ccc(CNC(=O)C2CCCC2)cc1 [Compound Y207-3980],93

# Same assay, conditions: tested concentration 2.0 mM; read-out: DdlB RA
row,Structure (SMILES),remaining activity at 2000 µM [%]
1,O=C(O)c1ccccc1NC(=O)C1CCCCC1 [Compound Y030-1673],104
2,CCCCC(=O)Nc1ccc(S(N)(=O)=O)cc1 [Compound Y030-9753],96
3,Cc1cc(C)n(C(=O)C2CC=CCC2C(=O)O)n1 (stereo not drawn) [Compound Y203-9842],90
4,O=C(O)CCC(=O)NC1C2CC3CC(C2)CC1C3 (stereo not drawn) [Compound Y206-2966],90

# Same assay, conditions: tested concentration 2.1 mM; read-out: DdlB RA
row,Structure (SMILES),remaining activity at 2100 µM [%]
1,CC(=O)N1CCC2(CCc3ccc(O)cc3O2)CC1 [Compound Y041-9811],94
2,O=C(O)C(Cc1ccccc1)Nc1ncccn1 (stereo not drawn) [Compound Y042-3157],90
3,NCC(=O)N[C@@H](Cc1ccc(O)cc1)C(=O)O [Compound Y043-8421] (H-Gly-Tyr-OH),95
4,O=C(NC1CCCC1)[C@H]1CCCC[C@H]1C(=O)O [Compound Y203-9770],91
5,O=S(=O)(Cc1ccccc1F)N1CCOCC1 [Compound Y300-2685],95

# Same assay, conditions: tested concentration 2.2 mM; read-out: DdlB RA
row,Structure (SMILES),remaining activity at 2200 µM [%]
1,CC1CCCCC1NS(=O)(=O)c1ccccc1 (stereo not drawn) [Compound Y206-4071],91

# Same assay, conditions: tested concentration 2.3 mM; read-out: DdlB RA
row,Structure (SMILES),remaining activity at 2300 µM [%]
1,CC(C)(C)NS(=O)(=O)Cc1ccc(Cl)cc1 [Compound Y031-1123],91
2,O=c1[nH]c2ncc(Br)cc2o1 [Compound Y042-2897],92
3,O=C(O)CCc1nnc2ccccn2c1=O [Compound Y042-3065],102
4,CCOc1ccc(S(N)(=O)=O)cc1C [Compound Y050-1019],79
5,CN(C)CC(=O)Nc1ccc(Cl)cn1 [Compound Y206-6252],95
6,Cc1cccc(CS(=O)(=O)N2CCCC2)c1 [Compound Y300-2952],98
7,N#Cc1cnn2c1NC(C1CC1)CC2C(F)(F)F (stereo not drawn) [Compound Y501-9194],83

# Same assay, conditions: tested concentration 2.4 mM; read-out: DdlB RA
row,Structure (SMILES),remaining activity at 2400 µM [%]
1,CC1CCCN(S(=O)(=O)Cc2ccccc2)C1 (stereo not drawn) [Compound Y030-1494],79
2,O=C(O)c1ccnc(N2CCOCC2)c1 [Compound Y043-8163],89
3,CC(C)CS(=O)(=O)N1CCc2ccccc2C1 [Compound Y200-6914],73
4,CCS(=O)(=O)Nc1c(C)cc(C)cc1C [Compound Y202-7340],90
5,CNS(=O)(=O)c1ccc2c(c1)CCN2C(C)=O [Compound Y300-1529],90
6,CCN(C(=O)c1n[nH]cc1Cl)c1ccccc1 [Compound Y501-5069],95
7,Cc1nn(C)cc1-c1cc(C(=O)O)n[nH]1 [Compound Y503-2347],95

# Same assay, conditions: tested concentration 2.5 mM; read-out: DdlB RA
row,Structure (SMILES),remaining activity at 2500 µM [%]
1,N#CCC(=O)N(c1ccccc1)c1ccccc1 [Compound Y204-3664],89
2,CN(C)S(=O)(=O)Cc1ccccc1F [Compound Y300-2671],95
3,Cc1ccc(-c2noc(C(=O)O)n2)cc1 [Compound Y501-1890],77

# Same assay, conditions: tested concentration 2.6 mM; read-out: DdlB RA
row,Structure (SMILES),remaining activity at 2600 µM [%]
1,CCS(=O)(=O)Nc1cc(C(C)(C)C)on1 [Compound Y206-0720],91

# Same assay, conditions: tested concentration 2.7 mM; read-out: DdlB RA
row,Structure (SMILES),remaining activity at 2700 µM [%]
1,O=C(O)C1C2CCC(C2)C1C(=O)NC1CC1 (stereo not drawn) [Compound Y205-0716],93
2,Cc1ccc(S(=O)(=O)NC2CC2)c(C)c1 [Compound Y206-5066],94

# Same assay, conditions: tested concentration 2.8 mM; read-out: DdlB RA
row,Structure (SMILES),remaining activity at 2800 µM [%]
1,Cc1ccccc1CS(=O)(=O)N(C)C [Compound Y300-2769],87
2,Cc1cc(C(=O)O)nn1C(F)F [Compound Y503-2420],85

# Same assay, conditions: tested concentration 3.0 mM; read-out: DdlB RA
row,Structure (SMILES),remaining activity at 3000 µM [%]
1,CCS(=O)(=O)Nc1cccc(F)c1 [Compound Y207-1326],92

# Same assay, conditions: tested concentration 3.1 mM; read-out: DdlB RA
row,Structure (SMILES),remaining activity at 3100 µM [%]
1,Oc1cc(-c2ccccc2)n[nH]1 [Compound Y501-8801],102

# Same assay, conditions: tested concentration 3.2 mM; read-out: DdlB RA
row,Structure (SMILES),remaining activity at 3200 µM [%]
1,Cc1ccn(C(C)C(=O)O)n1 (stereo not drawn) [Compound Y503-2318],95
